# In patent publication US20060205771A1, “Caspase inhibitors as anticancer agents” (priority 2002, published 2006):
# *: point of attachment. Cbz = O=C(OCc1ccccc1)*; CH2F = FC*
# Columns and labels:
# [1] = test system: UT-9 astrocytoma cell line; assay: survival of UT-9 astrocytoma cell line (MTT/DAPI count); type: cell-based; settings: BCNU alone at doses equivalent to those used for 1789 and UT-12, FIG. 5
# Description: (§1) A variety of cells were exposed to BCNU (also known as carmustine) in the presence of a variety of caspase inhibitors. This alkylating agent is frequently employed in the treatment of cancers of the central nervous system, as well as for treatment of certain lymphomas. The growth of tumor cells and normal human brain precursor cells in chemically-defined medium was assayed under various conditions of alkylating agent and/or caspase inhibitor. Cells were exposed to BCNU at varying dosages, depending upon the outcome of characterization of their sensitivity to BCNU. In general, dosages were employed for which it would be possible to recognize protection from the cytotoxic effects of this alkylating agent, as well as to recognize increased anticancer activity depending on the conditions, of for example, the caspase inhibitor and the activity of this compound.
# (§2) After 24 hours, cells were pretreated for 1 hour with caspase inhibitors at a concentration of 20 microM, following exposure to BCNU for 1 hour at concentrations that would kill approximately 50% of the tumor cells, as determined by dose-response experiments. In general, the BCNU concentration applied ranged from 5 microg/ml to 20 microg/ml. Exposure periods were based upon the known clearance rate of BCNU in vivo. […] Percentages of cell survival were normalized to controls. All experiments were performed at least as quadruplicates. […]
# [2] = test system: normal astrocytes; assay: BCNU cytotoxicity on normal astrocytes; type: cell-based; settings: agent alone, FIG. 8
# Description: as §1
# [3] = test system: NIH3T3 cells; settings: cited from earlier work
# [4] = test system: UT-12 glioblastoma cell line; assay: survival of UT-12 glioblastoma cell line (MTT/DAPI count); type: cell-based; settings: UT-12 glioma cells; FIG. 6
# Description: as §1, §2
# [5] = test system: SW480 colon cancer cells; assay: cisplatin-induced death of SW480 colon cancer cells; type: cell-based; settings: cisplatin alone, FIG. 10
# [6] = target: T1, Caspase-1 (Homo sapiens, UniProt P29466); settings: cited from earlier work
# T1 sequence (P29466 120-297 limits assumed): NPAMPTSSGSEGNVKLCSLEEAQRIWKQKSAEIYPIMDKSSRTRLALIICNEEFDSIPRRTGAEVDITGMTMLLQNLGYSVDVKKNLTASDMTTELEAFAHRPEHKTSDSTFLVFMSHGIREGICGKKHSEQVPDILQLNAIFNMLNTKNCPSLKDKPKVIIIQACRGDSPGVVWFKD
# T1 sequence (P29466 317-404 limits assumed): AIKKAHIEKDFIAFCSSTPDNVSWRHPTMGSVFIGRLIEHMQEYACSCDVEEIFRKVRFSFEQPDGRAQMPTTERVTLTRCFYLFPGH
# [7] = test system: human liver cells; settings: cited from earlier work
# [8] = test system: SW480 (colon adenocarcinoma); settings: SW480 cell line; cited from earlier work
# [9] = test system: H460 (non-small cell lung cancer); settings: H460 cell line; cited from earlier work
# [10] = target: T2, caspase-3 (Homo sapiens, UniProt P42574); settings: cited from earlier work
# T2 sequence (P42574 29-175 limits assumed): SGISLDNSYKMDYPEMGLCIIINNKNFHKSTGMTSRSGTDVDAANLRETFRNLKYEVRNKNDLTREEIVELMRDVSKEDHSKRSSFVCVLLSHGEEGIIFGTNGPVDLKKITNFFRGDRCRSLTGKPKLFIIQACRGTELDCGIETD
# T2 sequence (P42574 176-277 limits assumed): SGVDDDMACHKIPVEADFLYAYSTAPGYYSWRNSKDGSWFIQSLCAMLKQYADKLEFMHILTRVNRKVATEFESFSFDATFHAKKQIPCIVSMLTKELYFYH
compound,measurement,setting,value
"O=NN(CCCl)C(=O)NCCCl [BCNU, carmustine]",reduction in cell number,[1],causes only a minor reduction in cell number
same,killing of astrocytes,[2],Astrocytes were killed by BCNU
"COc1ccc(O)c(C(C)(C)C)c1 [BHA, butylated hydroxyanisole]",protection from cytotoxicity of tumor necrosis factor plus caspase-8 inhibition,"[3]; pretreatment, Luschen et al.",protected NIH3T3 cells from cytotoxicity induced by the combination of tumor necrosis factor and caspase-8 inhibition
"O=C1O[C@H]([C@@H](O)CO)C(O)=C1O [Vitamin C, ascoribic acid]","cell killing by the full combination (caspase 9 and pan-caspase inhibition, BCNU, Vitamin C)",[4],kills all of the UT-12 glioma cells
"N.N.[Cl][Pt][Cl] [cisplatin, Cisplatin]",cell death / reduction in number of cells,[5],cisplatin-induced death
Ac-YVAD-CHO,inhibition of Caspase-1,[6],strong inhibitor of Caspase-1
Cbz-LEHD-CH2F,protection from TRAIL-associated toxicity,[7],effectively protects liver cells from TRAIL-associated toxicity
same,protection from TRAIL induced death,[8],did not protect
same,protection from TRAIL induced death,[9],did not protect
TRAIL: tumor necrosis factor-related apoptosis-inducing ligand,induction of cell death,[7],induces cell death in human liver cells by a caspase-9 dependent mechanism
c-DEVD-CHO,inhibition of caspase-3,[10],inhibits preferentially (but not specifically) caspase-3
zVAD.fmk,sensitization to the action of TNF,"[3]; Luschen et al, 2000",Sensitization to the action of TNF
